US12122816B2, “Long acting peptide tyrosine tyrosine (PYY) analogs and methods of use” (Intarcia Therapeutics, Inc., priority 2020, dated 2024)
pEC50: −log10 of the molar value. Starred links: 1 amine or outer side, 2 acyl side, 3 side chain; linkers in the order of their positions; H or OH if unused. Non-standard residues stand in square brackets, D forms with d. Residues, ends and D or L forms follow the SMILES beside them. Groups on a side chain read outwards from the residue. *: point of attachment. C20 diacid = O=C(O)CCCCCCCCCCCCCCCCCCC(=O)*; γGlu = O=C(O)[C@H](CCC(=O)[*:2])N[*:1]; NMeY = CN[C@@H](Cc1ccc(O)cc1)C(=O)O

What was measured:
Assay in all cases: NPY receptor functional assay (cAMP, HEK-CNG cells, ACTOne membrane potential dye)
Format in all cases: cell-based
human Y5 receptor = target: T1, human Y5 receptor (Homo sapiens, UniProt Q15761); settings: NPY5R pEC50, HEK-CNG cells; standard NPY; species (human or rat) not given
T1 sequence (Q15761 1-445): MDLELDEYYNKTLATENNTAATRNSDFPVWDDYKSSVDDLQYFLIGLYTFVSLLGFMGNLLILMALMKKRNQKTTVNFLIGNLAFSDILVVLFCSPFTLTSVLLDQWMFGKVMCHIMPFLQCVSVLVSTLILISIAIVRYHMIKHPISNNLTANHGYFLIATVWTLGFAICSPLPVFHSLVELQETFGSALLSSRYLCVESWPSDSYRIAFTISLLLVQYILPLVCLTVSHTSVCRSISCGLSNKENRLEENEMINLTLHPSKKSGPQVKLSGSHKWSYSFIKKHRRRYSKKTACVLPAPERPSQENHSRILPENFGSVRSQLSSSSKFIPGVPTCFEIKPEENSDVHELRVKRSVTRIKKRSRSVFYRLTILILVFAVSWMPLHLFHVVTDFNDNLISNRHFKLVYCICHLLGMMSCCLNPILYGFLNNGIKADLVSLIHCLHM
Text: (§1) The NPY family of G-protein coupled receptors include Y1, Y2, Y4, and Y5 in humans and rats. […] Following agonist binding, the receptor-G protein complex activates a downstream intracellular signaling cascade which leads to inhibition of adenylate cyclase and a reduction in intracellular cAMP levels.
(§2) HEK-CNG cells stably expressing the human or rat Y1, Y2, Y4 or Y5 receptors (Codex Biosolutions) were used to characterize the functional potency of peptide agonists using the ActOne™ membrane potential dye kit (Codex Biosolutions). In addition to each NPY receptor, each cell line encodes a proprietary exogenous Cyclic Nucleotide-Gated (CNG) channel (Codex Biosolutions). The channel is activated by elevated intracellular levels of cAMP, resulting in ion flux and cell membrane depolarization which can be detected with a calcium sensitive dye or fluorescent membrane potential (MP) dye. Cells were carried in growth media containing 90% DMEM, 10% FBS, 250 mcg/mL G418 and 1 mcg/mL puromycin for no more than 15 passages.
(§3) Prior to testing, cells were counted and dispensed at 14,000 cells per well (Y1, Y4 and Y5) or 28,000 cells per well (Y2) into black 384 well Poly-D-Lysine plates at 20 mcL per well. Covered plates were then incubated at room temperature for 30 minutes followed by an overnight incubation at 37° C. in 5% C02. The following day, media was removed and wells were washed once with 40 mcL Dulbecco's phosphate buffered saline. […] Ten microliters of experimental peptide or peptide standard was added in triplicate to wells and incubated for 50 minutes at room temperature in the dark. Following this incubation step, plates were read again as before (final read).
(§4) NPY receptor activation, leading to a reduction in intracellular cAMP levels, is detected as a decrease in isoproteranol induced fluorescent signal. Peptide standard and experimental values were initially transformed in excel using the formula: final read/initial read. Transformed values were then normalized to receptor specific standard values (1×10−13 M minimum and 1×10−7 M maximum) using the formula: (test value−standard minavg)/(standard maxavg−standard minavg)*100. […] Normalized data was analyzed from triplicate tests and used to estimate the EC50 for each test peptide on each receptor. Data was fit in GraphPad Prism software (v8.2.1) using a 3-parameter logistic curve model: Y=Bottom+(Top−Bottom)/(1+10^((LogEC50−X))). EC50 values were converted to pEC50 values using the formula: pEC50=−Log(EC50).

human Y4 receptor = human Y4 receptor (Homo sapiens, UniProt P50391); settings: standard PP, species (human or rat) not given
Sequence of human Y4 receptor (P50391 whole entry): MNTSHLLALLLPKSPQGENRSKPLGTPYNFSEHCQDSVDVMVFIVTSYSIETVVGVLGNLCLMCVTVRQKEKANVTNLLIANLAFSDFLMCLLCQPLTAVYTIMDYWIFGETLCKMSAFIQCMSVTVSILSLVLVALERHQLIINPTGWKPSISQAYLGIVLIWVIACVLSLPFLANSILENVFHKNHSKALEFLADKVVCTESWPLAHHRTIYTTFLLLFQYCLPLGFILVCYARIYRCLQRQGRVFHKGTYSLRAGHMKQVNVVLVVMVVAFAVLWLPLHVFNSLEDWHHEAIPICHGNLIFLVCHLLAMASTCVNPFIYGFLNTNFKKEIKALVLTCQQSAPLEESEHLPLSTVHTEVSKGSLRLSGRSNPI
Text: as §1, §2, §3, §4

human Y2 receptor = target: T2, human Y2 receptor (Homo sapiens, UniProt P49146); settings: NPY2R pEC50, HEK-CNG cells; standard PYY(3-36); species (human or rat) not given
T2 sequence (P49146 1-381): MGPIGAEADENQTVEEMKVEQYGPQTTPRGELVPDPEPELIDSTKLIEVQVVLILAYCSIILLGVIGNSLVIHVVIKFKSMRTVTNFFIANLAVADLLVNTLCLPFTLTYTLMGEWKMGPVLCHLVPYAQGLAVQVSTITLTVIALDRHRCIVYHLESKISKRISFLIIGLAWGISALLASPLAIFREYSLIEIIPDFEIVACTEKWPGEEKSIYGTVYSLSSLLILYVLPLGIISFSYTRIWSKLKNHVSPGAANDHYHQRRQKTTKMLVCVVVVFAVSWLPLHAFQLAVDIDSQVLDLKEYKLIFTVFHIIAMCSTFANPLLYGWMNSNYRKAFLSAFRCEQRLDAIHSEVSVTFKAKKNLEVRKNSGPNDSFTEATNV
Text: as §1, §2, §3, §4

CC(C)C[C@H](NC(=O)[C@H](Cc1ccc(O)cc1)NC(=O)[C@H](Cc1c[nH]cn1)NC(=O)[C@H](CCCNC(=N)N)NC(=O)[C@H](C)NC(=O)[C@H](CC(=O)O)NC(=O)[C@H](C)NC(=O)[C@H](Cc1ccc(O)cc1)NC(=O)[C@H](Cc1ccc(O)cc1)NC(=O)[C@H](CCCNC(=N)N)NC(=O)[C@H](CC(N)=O)NC(=O)[C@H](Cc1c[nH]c2ccccc12)NC(=O)[C@H](CCC(=O)O)NC(=O)[C@H](CCC(=O)O)NC(=O)[C@@H]1CCCN1C(=O)[C@H](CO)NC(=O)[C@H](C)NC(=O)[C@H](CC(=O)O)NC(=O)[C@H](CCCCN)NC(=O)CNC(=O)[C@@H]1CCCN1C(=O)[C@H](C)NC(=O)[C@H](CCC(=O)O)NC(=O)[C@@H]1CCCN1C(=O)[C@H](CCCCN)NC(=O)[C@@H]1CCCN1C(=O)[C@@H](N)CCCCNC(=O)CC[C@H](NC(=O)CC[C@H](NC(=O)CCCCCCCCCCCCCCCCCCC(=O)O)C(=O)O)C(=O)O)C(=O)N[C@@H](CC(N)=O)C(=O)N[C@@H](Cc1c[nH]c2ccccc12)C(=O)N[C@@H](CC(C)C)C(=O)N[C@H](C(=O)N[C@@H](CCCNC(=N)N)C(=O)N[C@@H](CCC(N)=O)C(=O)N[C@@H](CCCNC(=N)N)C(=O)N(C)[C@@H](Cc1ccc(O)cc1)C(N)=O)[C@@H](C)O [Compound A4] (H-K([γGlu-γGlu-C20 diacid])PKPEAPGKDASPEEWNRYYADARHYLNWLTRQR[NMeY]-NH2; N-terminus assumed)
pEC50 (human Y5 receptor): 7.30
NPY4R pEC50 (human Y4 receptor): inactive
pEC50 (human Y2 receptor): 8.70

CC(C)C[C@H](NC(=O)[C@H](Cc1ccc(O)cc1)NC(=O)[C@H](Cc1c[nH]cn1)NC(=O)[C@H](CCCNC(=N)N)NC(=O)[C@H](C)NC(=O)[C@H](CC(=O)O)NC(=O)[C@H](C)NC(=O)[C@H](Cc1ccc(O)cc1)NC(=O)[C@H](Cc1ccc(O)cc1)NC(=O)[C@H](CCCNC(=N)N)NC(=O)[C@H](CC(N)=O)NC(=O)[C@H](Cc1c[nH]c2ccccc12)NC(=O)[C@H](CCC(=O)O)NC(=O)[C@H](CCC(=O)O)NC(=O)[C@@H]1CCCN1C(=O)[C@H](CO)NC(=O)[C@H](C)NC(=O)[C@H](CC(=O)O)NC(=O)[C@H](CCCCN)NC(=O)CNC(=O)[C@@H]1CCCN1C(=O)[C@H](C)NC(=O)[C@H](CCC(=O)O)NC(=O)[C@@H]1CCCN1C(=O)[C@H](CCCCNC(=O)CC[C@H](NC(=O)CC[C@H](NC(=O)CCCCCCCCCCCCCCCCCCC(=O)O)C(=O)O)C(=O)O)NC(=O)[C@@H]1CCCN1)C(=O)N[C@@H](CC(N)=O)C(=O)N[C@@H](Cc1c[nH]c2ccccc12)C(=O)N[C@@H](CC(C)C)C(=O)N[C@H](C(=O)N[C@@H](CCCNC(=N)N)C(=O)N[C@@H](CCC(N)=O)C(=O)N[C@@H](CCCNC(=N)N)C(=O)N(C)[C@@H](Cc1ccc(O)cc1)C(N)=O)[C@@H](C)O [Compound A5]
pEC50 (human Y5 receptor): 8.00
NPY4R pEC50 (human Y4 receptor): inactive
pEC50 (human Y2 receptor): 7.70

CC(C)C[C@H](NC(=O)[C@H](Cc1ccc(O)cc1)NC(=O)[C@H](Cc1c[nH]cn1)NC(=O)[C@H](CCCNC(=N)N)NC(=O)[C@H](C)NC(=O)[C@H](CC(=O)O)NC(=O)[C@H](C)NC(=O)[C@H](Cc1ccc(O)cc1)NC(=O)[C@H](Cc1ccc(O)cc1)NC(=O)[C@H](CCCNC(=N)N)NC(=O)[C@H](CC(N)=O)NC(=O)[C@H](Cc1c[nH]c2ccccc12)NC(=O)[C@H](CCC(=O)O)NC(=O)[C@H](CCC(=O)O)NC(=O)[C@@H]1CCCN1C(=O)[C@H](CO)NC(=O)[C@H](C)NC(=O)[C@H](CC(=O)O)NC(=O)[C@H](CCCCN)NC(=O)CNC(=O)[C@@H]1CCCN1C(=O)[C@H](C)NC(=O)[C@H](CCCCNC(=O)CC[C@H](NC(=O)CC[C@H](NC(=O)CCCCCCCCCCCCCCCCCCC(=O)O)C(=O)O)C(=O)O)NC(=O)[C@@H]1CCCN1C(=O)[C@H](CCCCN)NC(=O)[C@@H]1CCCN1)C(=O)N[C@@H](CC(N)=O)C(=O)N[C@@H](Cc1c[nH]c2ccccc12)C(=O)N[C@@H](CC(C)C)C(=O)N[C@H](C(=O)N[C@@H](CCCNC(=N)N)C(=O)N[C@@H](CCC(N)=O)C(=O)N[C@@H](CCCNC(=N)N)C(=O)N(C)[C@@H](Cc1ccc(O)cc1)C(N)=O)[C@@H](C)O [Compound A6]
pEC50 (human Y5 receptor): 7.70
NPY4R pEC50 (human Y4 receptor): inactive
pEC50 (human Y2 receptor): 8.90

CC(C)C[C@H](NC(=O)[C@H](Cc1ccc(O)cc1)NC(=O)[C@H](Cc1c[nH]cn1)NC(=O)[C@H](CCCNC(=N)N)NC(=O)[C@H](C)NC(=O)[C@H](CC(=O)O)NC(=O)[C@H](C)NC(=O)[C@H](Cc1ccc(O)cc1)NC(=O)[C@H](Cc1ccc(O)cc1)NC(=O)[C@H](CCCNC(=N)N)NC(=O)[C@H](CC(N)=O)NC(=O)[C@H](Cc1c[nH]c2ccccc12)NC(=O)[C@H](CCC(=O)O)NC(=O)[C@H](CCCCNC(=O)CC[C@H](NC(=O)CC[C@H](NC(=O)CCCCCCCCCCCCCCCCCCC(=O)O)C(=O)O)C(=O)O)NC(=O)[C@@H]1CCCN1C(=O)[C@H](CO)NC(=O)[C@H](C)NC(=O)[C@H](CC(=O)O)NC(=O)[C@H](CCCCN)NC(=O)CNC(=O)[C@@H]1CCCN1C(=O)[C@H](C)NC(=O)[C@H](CCC(=O)O)NC(=O)[C@@H]1CCCN1C(=O)[C@H](CCCCN)NC(=O)[C@@H]1CCCN1)C(=O)N[C@@H](CC(N)=O)C(=O)N[C@@H](Cc1c[nH]c2ccccc12)C(=O)N[C@@H](CC(C)C)C(=O)N[C@H](C(=O)N[C@@H](CCCNC(=N)N)C(=O)N[C@@H](CCC(N)=O)C(=O)N[C@@H](CCCNC(=N)N)C(=O)N(C)[C@@H](Cc1ccc(O)cc1)C(N)=O)[C@@H](C)O [Compound A8]
pEC50 (human Y5 receptor): 7.10
NPY4R pEC50 (human Y4 receptor): inactive
pEC50 (human Y2 receptor): 9.60

CC(C)C[C@H](NC(=O)[C@H](CC(=O)O)NC(=O)[C@H](C)NC(=O)[C@H](Cc1ccc(O)cc1)NC(=O)[C@H](Cc1ccc(O)cc1)NC(=O)[C@H](CCCNC(=N)N)NC(=O)[C@H](CC(N)=O)NC(=O)[C@H](Cc1c[nH]c2ccccc12)NC(=O)[C@H](CCC(=O)O)NC(=O)[C@H](CCC(=O)O)NC(=O)[C@@H]1CCCN1C(=O)[C@H](CO)NC(=O)[C@H](C)NC(=O)[C@H](CC(=O)O)NC(=O)[C@H](CCCCN)NC(=O)CNC(=O)[C@@H]1CCCN1C(=O)[C@H](C)NC(=O)[C@H](CCC(=O)O)NC(=O)[C@@H]1CCCN1C(=O)[C@H](CCCCN)NC(=O)[C@@H]1CCCN1)C(=O)N[C@@H](CCCNC(=N)N)C(=O)N[C@@H](Cc1c[nH]cn1)C(=O)N[C@@H](CCCCNC(=O)CC[C@H](NC(=O)CC[C@H](NC(=O)CCCCCCCCCCCCCCCCCCC(=O)O)C(=O)O)C(=O)O)C(=O)N[C@@H](CC(C)C)C(=O)N[C@@H](CC(N)=O)C(=O)N[C@@H](Cc1c[nH]c2ccccc12)C(=O)N[C@@H](CC(C)C)C(=O)N[C@H](C(=O)N[C@@H](CCCNC(=N)N)C(=O)N[C@@H](CCC(N)=O)C(=O)N[C@@H](CCCNC(=N)N)C(=O)N[C@@H](Cc1ccccc1)C(N)=O)[C@@H](C)O [Compound A52]
pEC50 (human Y5 receptor): 8.00
NPY4R pEC50 (human Y4 receptor): inactive
pEC50 (human Y2 receptor): 8.40
